Each block holds one compound with its values, some of them ahead of it.
Columns and labels:
KHK-C = target: T1, KHK-C (Homo sapiens, UniProt P50053); assay: In vitro KHK kinase inhibitory activity test (ADP-Glo); type: biochemical; details: 1 nM KHK-C, 100 µM ATP, 200 µM D-Fructose
T1 construct: purchased Origene TP323488
T1 sequence (P50053 1-298): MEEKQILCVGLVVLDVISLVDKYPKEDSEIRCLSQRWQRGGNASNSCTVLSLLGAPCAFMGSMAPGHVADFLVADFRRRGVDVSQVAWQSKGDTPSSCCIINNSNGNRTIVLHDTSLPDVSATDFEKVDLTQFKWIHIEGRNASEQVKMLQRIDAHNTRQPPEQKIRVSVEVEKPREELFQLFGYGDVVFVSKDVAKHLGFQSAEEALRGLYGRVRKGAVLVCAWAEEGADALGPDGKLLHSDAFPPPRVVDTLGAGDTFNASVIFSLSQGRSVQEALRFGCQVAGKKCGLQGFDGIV
Description: 1) DMSO was used to prepare the compound of the present invention and a control drug to 10 mM, which was used as a testing stock solution.
2) The compound stock solution of the present invention was diluted 10-fold to 1 mM, and then the compound of the present invention was diluted in gradient 3-fold to 11 concentrations, with the highest concentration of 1 mM. The control drug stock solution was diluted 100-fold to 0.1 mM, and then the control drug was diluted in gradient 3-fold to 11 concentrations, with the highest concentration of 0.1 mM.
3) 0.1 µL of the diluted compound of the present invention and 0.1 µL of the diluted control drug were transferred by using Echo550 to a 384-well plate respectively, with two repeated wells set for each concentration, and centrifuged at 1,000 rpm for 1 min.
1) 5 µL of KHK-C kinase working fluid was added to a 384-well plate, centrifuged at 1,000 rpm for 1 min, and then incubated at a room temperature of 25° C. for 15 min. […]
3) After the reaction was completed, fluorescence value LUM was read on Envision.
Inhibition (% inh) was calculated by using the following equation: […]
IC50 was calculated by curve fitting with software.

[1] = Stability investigation of crystal forms A, B, C, D and the amorphous form of the compound of formula (1) (related substances by HPLC, moisture, XRD, DSC); type: physicochemical
Description: (§1) 2.1 Investigation conditions for the crystal form A of the compound of formula (1): • placed at 105° C. for 5 days, opened, and sampled for testing on day 5; • placed at 60° C. for 10 days, opened/closed, and sampled for testing on day 10; • placed at 25° C. and RH 92.5% for 10 days, opened/closed, and sampled for testing on day 10; • placed at 40° C. and RH 75% for one month, opened/closed, and sampled for testing on the last day of the month; and • under illumination, employing a closed way (polyethylene bag + composite film bag) to meet illumination requirements, and sampled for testing.
Illumination requirements: ICH Q1B Stability Testing: Photostability Testing of New Drug Substances and Products.
Determination of related substances: determined according to 0512 HPLC in General Principle (Volume IV) of Chinese Pharmacopoeia (2015 Version).
Moisture determination: determined according to 2 Coulometric Titration in the First Method (Karl Fischer titration) of 0832 Moisture Determination Method in General Principle (Volume IV) of Chinese Pharmacopoeia (2015 Version).
XRD determination: determined according to the Second Method-Powder X-ray Diffraction Method of 0451 X-ray Diffraction Method in General Principle (Volume IV) of Chinese Pharmacopoeia (2015 Version).
DSC determination: precisely weighing an appropriate amount of sample in a Standard disc, covering the Standard disc, placing the Standard disc in a sample disc position in a DSC furnace, placing a blank disc of the same type in a reference position, and carrying out the following temperature rise program:
1. Equilibrate at 25° C.; and
as §1, with “B” for “A”
as §1, with “C” for “A”
1. Equilibrate at 25° C.; and 2. Ramp 10° C. to 200° C.
as §1, with “D” for “A”
as §1, with “amorphous” for “crystal”, “form” for “form A”, “(1):” for “(1): • placed at 105° C. for 5 days, opened, and sampled for testing on day 5;”

[2] = tested on: D-Fructose-induced fructose-1-phosphate in HepG2 cells; assay: In vitro cell inhibitory activity test: D-Fructose-induced fructose-1-phosphate in HepG2 cells (LC-MS); type: cell-based; details: D-Fructose 3 h, read-out: EC50 (nM), inhibition of D-Fructose-induced fructose-1-phosphate
Description: 1) HepG2 cells in logarithmic growth phase were collected and counted by using a […]. Cell viability was detected by trypan blue exclusion method to ensure that the cell viability was above 90%.
2) A concentration of the HepG2 cells was adjusted, and 81 µL of FBS-free basal medium (starvation treated) cell suspension was added to each 96-well plate with a testing well cell inoculation quantity of 5 × 10^4.
3) The HepG2 cells in the 96-well plates were cultured overnight at 37° C., 5% CO2, and 95% humidity.
1) Before dosing, 9 µL of FBS was added into testing wells of the 96-well plate, and the starvation treatment was stopped.
2) A 10-fold compound solution was prepared, with the highest concentration of 100 µM, 8 concentrations and 3-fold gradient dilution. 10 µL of drug solution was added to each well of the 96-well plate inoculated with the cells, and three repeated wells were set for each drug concentration. 10 µL of 1% DMSO solution was added to the solvent control group, and three repeated wells were set.
3) The cells in the 96-well plates added with the drug were incubated at 37° C., 5% CO2, and 95% humidity for 30 min.
4) A 11-fold D-Fructose solution was prepared, with a concentration of 220 mM. […]
Data were analyzed by GraphPad Prism 5.0 software, a dose-effect curve was obtained by using nonlinear S-curve regression, and the EC50 value was calculated.

[3] = 25° C., RH 92.5%, closed, 10 days
[4] = 25° C., RH 92.5%, opened, 10 days

IC50 (KHK-C): 0.82 nM
SMILES: C[C@H]1CCN1c1nc(N2C[C@@H]3[C@@H](CC(=O)O)[C@@H]3C2)c2c(n1)C(F)(F)CC2 [Compound of formula (1), 2-((1R,5S,6R)-3-(7,7-difluoro-2-((S)-2-methylazetidin-1-yl)-6,7-dihydro-5H-cyclopenta[d]pyrimidin-4-yl)-3-azabicyclo[3.1.0]hexan-6-yl)acetic acid]

DSC ([1]; 0 day): 167.79 °C
Moisture % ([1]; 0 day): 0.066%
Total related % ([1]; 0 day): 0.37%
Trait ([1]; 0 day): Off-white power
DSC [1, 3]: 167.46 °C
Moisture % [1, 3]: 0.092%
Total related % [1, 3]: 0.38%
Trait [1, 3]: Off-white power
XRD [1, 3]: Same as day 0
DSC [1, 4]: 167.51 °C
Moisture % [1, 4]: 0.048%
Total related % [1, 4]: 0.38%
Trait [1, 4]: Off-white power
XRD [1, 4]: Same as day 0
DSC ([1]; 40° C., RH 75%, closed, 1 M): 167.77 °C
Moisture % ([1]; 40° C., RH 75%, closed, 1 M): 0.065%
Total related % ([1]; 40° C., RH 75%, closed, 1 M): 0.38%
Trait ([1]; 40° C., RH 75%, closed, 1 M): Off-white power
XRD ([1]; 40° C., RH 75%, closed, 1 M): Same as day 0
DSC ([1]; 40° C., RH 75%, opened, 1 M): 167.75 °C
Moisture % ([1]; 40° C., RH 75%, opened, 1 M): 0.12%
Total related % ([1]; 40° C., RH 75%, opened, 1 M): 0.39%
Trait ([1]; 40° C., RH 75%, opened, 1 M): Off-white power
XRD ([1]; 40° C., RH 75%, opened, 1 M): Same as day 0
DSC ([1]; 60° C., closed, 10 days): 167.43 °C
Moisture % ([1]; 60° C., closed, 10 days): 0.089%
Total related % ([1]; 60° C., closed, 10 days): 0.40%
Trait ([1]; 60° C., closed, 10 days): Off-white power
XRD ([1]; 60° C., closed, 10 days): Same as day 0
DSC ([1]; 60° C., opened, 10 days): 167.41 °C
Moisture % ([1]; 60° C., opened, 10 days): 0.079%
Total related % ([1]; 60° C., opened, 10 days): 0.41%
Trait ([1]; 60° C., opened, 10 days): Off-white power
XRD ([1]; 60° C., opened, 10 days): Same as day 0
DSC ([1]; 105° C., opened, 5 days): 167.19 °C
Moisture % ([1]; 105° C., opened, 5 days): 0.045%
Total related % ([1]; 105° C., opened, 5 days): 0.51%
Trait ([1]; 105° C., opened, 5 days): Off-white power
XRD ([1]; 105° C., opened, 5 days): Same as day 0
DSC ([1]; Avoid light for 18 days): 167.49 °C
Moisture % ([1]; Avoid light for 18 days): 0.048%
Total related % ([1]; Avoid light for 18 days): 0.38%
Trait ([1]; Avoid light for 18 days): Off-white power
XRD ([1]; Avoid light for 18 days): Same as day 0
Stability, testing conclusion ([1]; under the above conditions (all placement conditions of the study)): relatively stable
SMILES: C[C@H]1CCN1c1nc(N2C[C@@H]3[C@@H](CC(=O)O)[C@@H]3C2)c2c(n1)C(F)(F)CC2 [Crystal form D, 2-((1R,5S,6R)-3-(7,7-difluoro-2-((S)-2-methylazetidin-1-yl)-6,7-dihydro-5H-cyclopenta[d]pyrimidin-4-yl)-3-azabicyclo[3.1.0]hexan-6-yl)acetic acid]

EC50 [2]: 169 nM
SMILES: C[C@H]1CCN1c1nc(N2C[C@@H]3[C@@H](CC(=O)O)[C@@H]3C2)cc(C(F)(F)F)n1 [PF-06835919]
